According to article PMC11574108, “4-Furanylvinylquinoline derivative as a new scaffold for the design of oxidative stress initiator and glucose transporter inhibitor drugs” (Scientific Reports, 2024):

Assays:
tested cancer lines = assay: Antiproliferative MTS assay, summary over the panel; assay type: cell-based; settings: Homo sapiens; against most of the tested cancer lines
Experimental: The cells were seeded in 96-well plates (Nunc) with 5,000 or 4,000 cells per well for the cancer cells and NHDF, respectively, and incubated under standard conditions at 37 °C overnight. The culture media were then changed for freshly prepared solutions of the tested compounds in various concentrations. After 72-h incubation the antiproliferative assay was carried out as follows: the solutions of the compounds were changed in each well to 100 µL DMEM without phenol red and 20 µL of CellTiter 96 AQueous One Solution-MTS (Promega). The plates were incubated for 1 h at 37 °C, and the absorbance was then measured at 490 nm using a multi-plate reader (Synergy 4, BioTek). The experiment for each sample was repeated at least three times. The results are presented as the half-maximal inhibitory concentration (IC50) values, which were estimated in comparison to untreated cells (control) and calculated using GraphPad Prism v.8.0 (USA).
However, the antiproliferative activity of derivative 13 with furan a ring was surprising. […] For this purpose, we selected two pancreatic cancer cell lines: AsPC-1, which is characterised by a deletion of the p53 protein[20] and PANC-1, which carries an R273H mutation. […] In light of the above-mentioned facts, we also determined the cytotoxicity of the GLUT inhibitor BAY-876, which is based on a quinoline scaffold. […]

p21 = assay: Western blot, p21 protein level; assay type: cell-based, human; settings: HCT 116 p53+/+, 0.5 and 1 µM, 24 and 48-h
Experimental: (§1) The cells (500,000) were seeded in 35 mm Petri dishes (Nunc) and incubated in a solution of the tested compound (0.5 µM and 1 µM) for 24 h and 48 h. The cells were then dissociated using trypsin, collected in Eppendorf tubes, and centrifuged at 2,000 rpm. Next, cell pellets were resuspended in complete RIPA buffer containing a Halt Protease Inhibitor Cocktail and Halt Phosphatase Inhibitor Cocktail along with 0.5 M EDTA (all reagents from Thermo Fisher Scientific) and lysed on ice for 20 min. Afterward, the lysates were sonicated and centrifuged at 10,000 rpm for 10 min at 4 °C. The obtained supernatants were collected for further analysis. The protein concentration was determined using a Micro BCA™ Protein Assay Kit (Thermo Fisher Scientific) according to the manufacturer’s procedure. Equal amounts of proteins (16 µg) were electrophoresed on SDS-Page gels and transferred onto nitrocellulose membranes. Novex Sharp Pre-Stained Protein Standard (Thermo Fisher Scientific) was used as a colored molecular weight marker. […]
The overexpression of p21 also causes cell cycle inhibition via its binding to the […]. […] The cell cycle in the U-251 cell line was inhibited precisely in the S-phase, and it is, therefore, likely that the p21 protein expression was not detected in the glioma cells tested (data not shown).

Fas = assay: Western blot, Fas protein level; assay type: cell-based, human
Experimental: as §1, with “marker. The membranes were blocked in 5% non-fat milk prepared in TPBS (PBS supplemented by 0.1% Tween-20) for 1 h. After blocking, the membranes were cut, and then incubated with specific primary monoclonal antibodies (all purchased from Cell Signaling) overnight at 4 °C.” for “marker.”

- IC50 (tested cancer lines): < 100 nM
Compound: O=[N+]([O-])c1ccc(/C=C/c2ccnc3ccccc23)o1 [Compound 13]
- p21 protein expression vs control (p21): more than two-fold increase
- Fas protein level vs control (Fas; HCT 116 p53+/+, 24-h): more than three-fold increase
- Fas protein expression vs untreated cells (Fas; HCT 116 p53-/-, 48-h): four times higher
